Laboratory results taken from patent US10375956B2, “Herbicidally active 2-(substituted-phenyl)-cyclopentane-1,3-dione compounds and derivatives thereof” (Syngenta Limited, priority 2013, dated 2019).
Like-named read-outs stand apart in the source and are kept apart here.

Tests used:
Assay type in all cases: in vivo
[1] = system: Alopecurus myosuroides (ALOMY); assay: Test 1 glasshouse assay, post-emergence herbicidal activity; settings: 312 h, after 13 days, read-out: Percentage phytotoxicity ALOMY
Method in brief: (§1)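 Plants sprayed 8 days after sowing with active ingredient in acetone/water (50:50) containing 0.5% Tween 20, grown in glasshouse at 24/16°C day/night, 14 h light, 65% humidity. Phytotoxicity scored visually after 13 days as percentage damage (100% = total damage; 0% = none).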

[2] = system: Echinochloa crus-galli (ECHCG); assay: as above; settings: 312 h, after 13 days, read-out: Percentage phytotoxicity ECHCG
Method in brief: as §1

Lolium perenne (LOLPE) = assay: Test 2 glasshouse assay (IF50 formulation, X-77), pre-emergence herbicidal activity; settings: 480 h, 20DAA, read-out: Percentage phytotoxicity LOLPE
Experimental: (§2) Seeds of a variety of monocotyledonous and dicotyledonous test plants are sown in standard soil in pots. The plants are cultivated for one day (for pre-emergence) or for about 12 days (for post-emergence) under controlled conditions in a glasshouse (warm climate species at 24/18° C., cool climate species at 20/16° C., both at day/night; 16 hours light; 65% humidity).
(§3) An “instant formulation”, known as the “IF50”, containing 50 g/liter (i.e. 5% w/v) of the “technical” (i.e. unformulated) active ingredient is prepared by dissolving the active ingredient in a mixture of organic solvents and emulsifier, details of which are provided in the Table below. This IF50 is then mixed with a small, variable amount of acetone to aid dissolution, before addition of a 0.2% v/v aqueous solution of the adjuvant X-77 (which is a mixture of alkyl aryl polyoxyethylene glycols and free fatty acids in isopropanol, CAS Registry number 11097-66-8), as the aqueous diluent, to form an aqueous spray solution which contains a predetermined concentration of the active ingredient (which varies depending on the application rate of the active ingredient to the plants) and 0.2% v/v of the adjuvant X-77. This aqueous spray solution is then sprayed onto the plants, after one day's cultivation (for pre-emergence), or after about 12 days' cultivation (range=10-13 days) (for post-emergence).
(§4) The test plants are then grown on, in a glasshouse (greenhouse) under controlled conditions (warm climate species at 24/18° C., cool climate species at 20/16° C., both at day/night; 16 hours light; 65% humidity) and are watered twice daily. 15 days after application of the test herbicide (15DAA) (for post-emergence), and 20 days after application of the test herbicide (20DAA) (for pre-emergence), the test plants are evaluated visually, and an assessed percentage phytotoxicity score is given for each herbicidal application on each plant species (with 100%=total damage to plant; 0%=no damage to plant).
Cool climate (“cool season”) grassy monocotyledonous weeds: Alopecurus myosuroides (ALOMY), Avena fatua (AVEFA), Lolium perenne (LOLPE).

[3] = system: Brachiaria plantaginea (BRAPL); assay: as above; settings: Urochloa plantaginea, 480 h, 20DAA, read-out: Percentage phytotoxicity BRAPL
Experimental: as §2, §3, §4
(§5) Warm climate (“warm season”) grassy monocotyledonous weeds: Setaria faberi (SETFA), Panicum miliaceum (PANMI), Sorghum vulgare Pers. (SORVU) (or Sorghum bicolor (L) Moench ssp. Bicolor), Digitaria sanguinalis (DIGSA), Echinochloa crus-galli (ECHCG), and Brachiaria plantaginea (BRAPL).

[4] = system: Digitaria sanguinalis (DIGSA); assay: as above; settings: 480 h, 20DAA, read-out: Percentage phytotoxicity DIGSA
Experimental: as §2, §3, §4, §5

[5] = system: Echinochloa crus-galli (ECHCG); assay: as above; settings: 480 h, 20DAA, read-out: Percentage phytotoxicity ECHCG
Experimental: as §2, §3, §4, §5

[6] = system: Panicum miliaceum (PANMI); assay: as above; settings: 480 h, 20DAA, read-out: Percentage phytotoxicity PANMI
Experimental: as §2, §3, §4, §5

Setaria faberi (SETFA) [7] = assay: as above; settings: 480 h, 20DAA, read-out: Percentage phytotoxicity SETFA
Experimental: as §2, §3, §4, §5

[8] = system: Sorghum vulgare Pers. (SORVU); assay: as above; settings: Sorghum bicolor, 480 h, 20DAA, read-out: Percentage phytotoxicity SORVU
Experimental: as §2, §3, §4, §5

[9] = system: Brachiaria plantaginea (BRAPL); assay: Test 2 glasshouse assay (IF50 formulation, X-77), post-emergence herbicidal activity; settings: Urochloa plantaginea, 360 h, 15 DAA, visual score, read-out: Post-emergence herbicidal activity (percentage phytotoxicity) BRAPL; for pest or weed control at 30 g/ha: application rate 30 g/ha; for pest or weed control at 250 g/ha: application rate 250 g/ha
Experimental: as §2, §3, §4, §5

[10] = system: Digitaria sanguinalis (DIGSA); assay: as above; settings: 360 h, 15 DAA, visual score, read-out: Post-emergence herbicidal activity (percentage phytotoxicity) DIGSA; for pest or weed control at 30 g/ha: application rate 30 g/ha; for pest or weed control at 250 g/ha: application rate 250 g/ha
Experimental: as §2, §3, §4, §5

Setaria faberi (SETFA) [11] = assay: as above; settings: 360 h, 15 DAA, visual score, read-out: Post-emergence herbicidal activity (percentage phytotoxicity) SETFA; for pest or weed control at 30 g/ha: application rate 30 g/ha; for pest or weed control at 250 g/ha: application rate 250 g/ha
Experimental: as §2, §3, §4, §5

[12] = system: Sorghum vulgare Pers. (SORVU); assay: as above; settings: Sorghum bicolor, 360 h, 15 DAA, visual score, read-out: Post-emergence herbicidal activity (percentage phytotoxicity) SORVU; for pest or weed control at 30 g/ha: application rate 30 g/ha; for pest or weed control at 250 g/ha: application rate 250 g/ha
Experimental: as §2, §3, §4, §5

[13] = post-emergence (Example 1B Table 1)
[14] = post-emergence (Example 1B Table 2)

| Structure (SMILES) | pest or weed control at 62.5 g/ha [1, 13] | pest or weed control at 250 g/ha [1, 13] | pest or weed control at 62.5 g/ha [2, 13] | pest or weed control at 250 g/ha [2, 13] | pest or weed control at 30 g/ha [9] | pest or weed control at 30 g/ha [10] | pest or weed control at 30 g/ha (Setaria faberi (SETFA) [11]) | pest or weed control at 30 g/ha [12] | pest or weed control at 62.5 g/ha [1, 14] | pest or weed control at 250 g/ha (Lolium perenne (LOLPE)) | pest or weed control at 250 g/ha [3] | pest or weed control at 250 g/ha [4] | pest or weed control at 250 g/ha [5] | pest or weed control at 250 g/ha [6] | pest or weed control at 250 g/ha (Setaria faberi (SETFA) [7]) | pest or weed control at 250 g/ha [8] | pest or weed control at 250 g/ha [9] | pest or weed control at 250 g/ha [10] | pest or weed control at 250 g/ha (Setaria faberi (SETFA) [11]) | pest or weed control at 250 g/ha [12] | further results |
| --- | --- | --- | --- | --- | --- | --- | --- | --- | --- | --- | --- | --- | --- | --- | --- | --- | --- | --- | --- | --- | --- |
| C#CCC1CC(=O)C(c2c(C)cc(-c3ccc(F)cc3)cc2C)C1=O (stereo not shown) [Compound A1, 2-[4-(4-fluorophenyl)-2,6-dimethyl-phenyl]-4-prop-2-ynylcyclopentane-1,3-dione] | 90% | 100% | 100% | 100% | 100% | 100% | 90% | 90% | – | – | – | – | – | – | – | – | – | – | – | – | pest or weed control at 125 g/ha (Lolium perenne (LOLPE); 125 g/ha): 80%; pest or weed control at 125 g/ha ([3]; 125 g/ha): 90%; pest or weed control at 125 g/ha ([4]; 125 g/ha): 100%; pest or weed control at 125 g/ha ([5]; 125 g/ha): 90%; pest or weed control at 125 g/ha ([6]; 125 g/ha): 100%; pest or weed control at 125 g/ha (Setaria faberi (SETFA) [7]; 125 g/ha): 100%; pest or weed control at 125 g/ha ([8]; 125 g/ha): 90%; pest or weed control at 125 g/ha ([9]; application rate 125 g/ha): 100%; pest or weed control at 125 g/ha ([10]; application rate 125 g/ha): 100%; pest or weed control at 125 g/ha (Setaria faberi (SETFA) [11]; application rate 125 g/ha): 100%; pest or weed control at 125 g/ha ([12]; application rate 125 g/ha): 100% |
| C#CCC1CC(=O)C(c2c(C)cc(-c3ccc(Cl)cn3)cc2C)C1=O (stereo not shown) [Compound A2] | 90% | 90% | 100% | 100% | 100% | 100% | 100% | 100% | 70% | 80% | 80% | 70% | 80% | 100% | 90% | 80% | 100% | 100% | 100% | 100% | pest or weed control at 250 g/ha [1, 14]: 100%; pest or weed control at 62.5 g/ha [2, 14]: 90%; pest or weed control at 250 g/ha [2, 14]: 100% |
| C#CCC1CC(=O)C(c2c(C)cc(-c3ncc(Cl)cc3F)cc2C)C1=O (stereo not shown) [Compound A3] | 100% | 100% | 100% | 100% | 80% | 100% | 100% | 100% | 100% | 80% | 90% | 90% | 80% | 80% | 80% | 80% | 100% | 100% | 100% | 100% | pest or weed control at 250 g/ha [1, 14]: 100%; pest or weed control at 62.5 g/ha [2, 14]: 100%; pest or weed control at 250 g/ha [2, 14]: 100% |
| C#CCC1CC(=O)C(c2c(Cl)cc(-c3ccc(F)cc3)cc2OC)C1=O (stereo not shown) [Compound A7] | – | 100% | – | 100% | 100% | 100% | 90% | 100% | – | 60% | 90% | 100% | 90% | 100% | 90% | 90% | 100% | 100% | 100% | 100% | pest or weed control at 30 g/ha [1, 13]: 70%; pest or weed control at 30 g/ha [2, 13]: 100% |
| C#CCC1CC(=O)C(c2c(Cl)cc(-c3ccc(Cl)cc3)cc2OC)C1=O (stereo not shown) [Compound A11, 2-[2-chloro-4-(4-chlorophenyl)-6-methoxyphenyl]-4-prop-2-ynylcyclopentane-1,3-dione] | – | 100% | – | 100% | 100% | 100% | 80% | 100% | – | 60% | 100% | 90% | 70% | 60% | 90% | 80% | 100% | 100% | 100% | 100% | pest or weed control at 30 g/ha [1, 13]: 70%; pest or weed control at 30 g/ha [2, 13]: 100% |
